Results taken from PMC5736709, “Unravelling the specificity and mechanism of sialic acid recognition by the gut symbiont Ruminococcus gnavus” (Nature Communications, 2017).
“Also recorded” adds a separate entry of the source.

What was measured:
RgCBM40 [1] = target: T1, RgCBM40 (Mediterraneibacter gnavus (Ruminococcus gnavus), UniProt A7B557); experiment: ITC of sialoglycans binding to RgCBM40 wild type; set-up: species or system Ruminococcus gnavus ATCC 29149; conditions: RgCBM40 WT; for Kd: ITC in PBS, 115-230 μM protein in cell, syringe 10 mM sugar (25 mM for Neu5Ac), * = estimate only, Kd too high to determine; for -T∆S / ∆G / ∆H: ITC, SD of three results
Experimental: (§1) Isothermal titration calorimetry (ITC) experiments were performed using the PEAQ-ITC system (Malvern, Malvern, UK) with a cell volume of 200 µl. Prior to titration protein samples were exhaustively dialysed into PBS. The ligand was dissolved in the dialysis buffer. The cell protein concentration was 115 µM (except for mutant I95A where it was 173 µM and the wild-type interaction with 6′SL where it was 230 µM) and the syringe ligand concentration was 10 mM (25 mM for Neu5Ac). Controls with titrant (sugar) injected into buffer only were subtracted from the data. Analysis was performed using Malvern software, using a single-binding site model. The stoichiometry of binding sites was set to 1.0 as this was evident from the crystal structure. Quantitative and most qualitative experiments were carried out in triplicate.

SpCBM40_NanC = target: SpCBM40_NanC; set-up: method as in PMID 26370075; conditions: isolated S. pneumoniae SpCBM40_NanC ref 37; cited from earlier work
RgCBM40 I95A [2] = target: T2, RgCBM40 I95A (Mediterraneibacter gnavus (Ruminococcus gnavus), UniProt A7B557, I95A); experiment: ITC of sialoglycans binding to RgCBM40 mutant I95A; set-up: species or system Ruminococcus gnavus ATCC 29149; conditions: for Kd: 173 µM protein, syringe 10 mM sugar (25 mM for Neu5Ac), * = estimate only
T2 sequence (A7B557 50-237 I95A): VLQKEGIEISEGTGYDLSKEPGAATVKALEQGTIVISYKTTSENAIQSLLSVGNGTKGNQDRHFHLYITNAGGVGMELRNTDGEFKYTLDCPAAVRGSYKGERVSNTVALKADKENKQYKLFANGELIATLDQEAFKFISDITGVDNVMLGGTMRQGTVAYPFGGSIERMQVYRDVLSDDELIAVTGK
Experimental: (§2) Site directed mutagenesis of RgGH33 to introduce the D282A mutation in the active site was carried out using the QuikChange kit, following the manufacturer’s instructions, Agilent (Santa Clara, CA, USA). Site-directed mutants of RgCBM40; I95A, Y116A, E126A, R128A, R204A and double mutant R128A/R204A, were obtained from NZyTech (Lisbon, Portugal). The primers are listed in Supplementary Table 4. The integrity of the RgGH33 and RgCBM40 mutants was checked by circular dichroism (CD).
as §1

RgCBM40 R204A = target: T3, RgCBM40 R204A (Mediterraneibacter gnavus (Ruminococcus gnavus), UniProt A7B557, R204A); experiment: ITC of sialoglycans binding to RgCBM40 mutant R204A; set-up: species or system Ruminococcus gnavus ATCC 29149; conditions: for Kd: ITC
T3 sequence (A7B557 50-237 R204A): T2 sequence (A7B557 50-237 I95A)
Experimental: as §2, §1

RgCBM40 R128A = target: T4, RgCBM40 R128A (Mediterraneibacter gnavus (Ruminococcus gnavus), UniProt A7B557, R128A); experiment: ITC of sialoglycans binding to RgCBM40 mutant R128A; set-up: species or system Ruminococcus gnavus ATCC 29149; conditions: for Kd: ITC
T4 sequence (A7B557 50-237 R128A): T2 sequence (A7B557 50-237 I95A)
Experimental: as §2, §1

RgCBM40 R128A/R204A = target: T5, RgCBM40 R128A/R204A (Mediterraneibacter gnavus (Ruminococcus gnavus), UniProt A7B557, R128A/R204A); experiment: ITC of sialoglycans binding to RgCBM40 double mutant R128A/R204A; set-up: species or system Ruminococcus gnavus ATCC 29149; conditions: for Kd: ITC
T5 sequence (A7B557 50-237 R128A/R204A): T2 sequence (A7B557 50-237 I95A)
Experimental: as §2, §1

RgCBM40 [3] = target: T1, RgCBM40; experiment: STD NMR of sialoglycans with RgCBM40 WT; set-up: species or system Ruminococcus gnavus ATCC 29149; conditions: 1 mM sialoglycan, 50 μM RgCBM40 WT, 288 K; 'exception' = monosaccharides for which binding was not detected
Experimental: (§3) ^1H and ^13C resonance assignment for all the sugars was performed on the bases of 1D ^1H, 2D DQF-COSY, TOCSY, HSQC and NOESY experiments run on the free ligands in unbuffered D2O, pH 7.0. For STD NMR experiments, all the samples consisted of 1 mM sialoglycans and 50 μM RgCBM40 (WT or I95A mutant) in D2O buffer solution of 10 mM Tris-d11 pH 7.8 and 100 mM NaCl (ligand: protein ratio 20:1). An STD pulse sequence that included 2.5 ms and 5 ms trim pulses and a 3 ms spoil gradient was used. Saturation was achieved applying a train of 50 ms Gaussian pulses (0.40 mW) on the f2 channel, at 0.60 p.p.m. (on-resonance experiments) and 40 p.p.m. (off-resonance experiments). The broad protein signals were removed using a 40 ms spinlock (T1ρ) filter. All the experiments were recorded at ^1H frequency of 800.23 MHz on a Bruker Avance III spectrometer equipped with a 5 mm probe TXI 800 MHz H-C/N-D-05 Z BTO, at 288 K. For all the sialoglycans in the presence of RgCBM40, an STD experiment with a saturation time of 2 s and a relaxation delay of 5 s was performed, as a first test for binding. For the confirmed binders, the STD NMR experiments were carried out at different saturation times (0.5, 1, 2, 3, 4 and 5 s) with 1 K scans and relaxation delay of 5 s, in order to obtain the binding epitope mapping. The resulting build-up curves for each proton were fitted mathematically to a mono-exponential equation (y = a×[1-exp(b×x)]), from which the initial slopes (a×b) were obtained. For each ligand, the binding epitope mapping was obtained by dividing the initial slopes by the one of the H7 proton of the corresponding sialic acid ring, to which an arbitrary value of 100% was assigned. This normalisation of the STD values allows the comparison across all the sialoglycans.

RgCBM40 I95A [4] = target: T2, RgCBM40 I95A; experiment: STD NMR of sialoglycans with RgCBM40 I95A mutant; assay type: binding, Ruminococcus gnavus ATCC 29149; conditions: 1 mM sialoglycan, 50 μM RgCBM40 I95A
Experimental: as §3, with “The resulting build-up curves for each proton were fitted mathematically to a mono-exponential equation (y = a×[1-exp(b×x)]), from which the initial slopes (a×b) were obtained. For each ligand, the binding epitope mapping was obtained by dividing the initial slopes by the one of the H7 proton of the corresponding sialic acid ring, to which an arbitrary value of 100% was assigned. This normalisation of the STD values allows the comparison across all the sialoglycans.” left out

RgCBM40 Y116A = target: T6, RgCBM40 Y116A (Mediterraneibacter gnavus (Ruminococcus gnavus), UniProt A7B557, Y116A); experiment: ITC of sialoglycans binding to RgCBM40 mutant Y116A; set-up: species or system Ruminococcus gnavus ATCC 29149; conditions: for Kd: ITC
T6 sequence (A7B557 50-237 Y116A): T2 sequence (A7B557 50-237 I95A)
Experimental: as §2, §1

RgCBM40 Y210A = target: T7, RgCBM40 Y210A (Mediterraneibacter gnavus (Ruminococcus gnavus), UniProt A7B557, Y210A); experiment: ITC of sialoglycans binding to RgCBM40 mutant Y210A; set-up: species or system Ruminococcus gnavus ATCC 29149; conditions: for Kd: ITC
T7 sequence (A7B557 50-237 Y210A): T2 sequence (A7B557 50-237 I95A)
Experimental: as §1

RgCBM40 E126A = target: T8, RgCBM40 E126A (Mediterraneibacter gnavus (Ruminococcus gnavus), UniProt A7B557, E126A); experiment: ITC of sialoglycans binding to RgCBM40 mutant E126A; set-up: species or system Ruminococcus gnavus ATCC 29149; conditions: for Kd: ITC
T8 sequence (A7B557 50-237 E126A): T2 sequence (A7B557 50-237 I95A)
Experimental: as §2, §1

## CC(=O)N[C@H]1[C@H]([C@H](O)[C@H](O)CO)O[C@@](O[C@H]2[C@@H](O)[C@@H](CO)O[C@@H](O[C@H]3[C@H](O)[C@@H](O)C(O)O[C@@H]3CO)[C@@H]2O)(C(=O)O)C[C@@H]1O (stereo partly drawn) [3′SL, α2-3 sialyllactose]
RgCBM40 [1]
  Kd: 0.57 mM
  -T∆S: 1.47 ± 0.77 kcal/mol
  ∆G: -4.43 ± 0.05 kcal/mol
  ∆H: -5.90 ± 0.72 kcal/mol
SpCBM40_NanC
  Kd: ~1.5 mM
RgCBM40 I95A [2]
  -T∆S: 0.97 ± 0.47 kcal/mol
  ∆G: -3.74 ± 0.04 kcal/mol
  ∆H: -4.71 ± 0.43 kcal/mol
  Kd: 1.82 mM
RgCBM40 R204A
  Binding by ITC (in words): abolished; also recorded: loss of binding
  Kd: > 25 mM
RgCBM40 R128A
  Binding by ITC (in words): abolished; also recorded: loss of binding
  Kd: > 25 mM
RgCBM40 R128A/R204A
  Binding by ITC (in words): abolished; also recorded: loss of binding
  Kd: > 25 mM
RgCBM40 [3]
  Binding to RgCBM40 detected by STD NMR: detected
RgCBM40 I95A [4]
  Binding to I95A by STD-NMR: confirmed
RgCBM40 Y116A
  Binding by ITC (in words): abolished
  Kd: > 25 mM
RgCBM40 Y210A
  Binding by ITC (in words): abolished
  Kd: > 25 mM
RgCBM40 E126A
  Binding by ITC (in words): abolished
  Kd: > 25 mM

## CC(=O)N[C@H]1[C@H]([C@H](O)[C@H](O)CO)O[C@@](OC[C@H]2O[C@@H](O[C@H]3[C@H](O)[C@@H](O)C(O)O[C@@H]3CO)[C@H](O)[C@@H](O)[C@H]2O)(C(=O)O)C[C@@H]1O (stereo partly drawn) [6′SL, α2,6-sialyllactose]
RgCBM40 [1]
  Kd: 1.7 mM
  -T∆S: 5.82 ± 0.48 kcal/mol
  ∆G: -3.78 ± 0.05 kcal/mol
  ∆H: -9.61 ± 0.44 kcal/mol
SpCBM40_NanC
  Kd: ~1.6 mM
RgCBM40 I95A [2]
  -T∆S: -0.12 ± 0.3 kcal/mol
  ∆G: -3.91 ± 0.07 kcal/mol
  ∆H: -3.79 ± 0.24 kcal/mol
  Kd: 1.37 mM
RgCBM40 R204A
  Binding by ITC (in words): abolished
  Kd: > 25 mM
RgCBM40 R128A
  Binding by ITC (in words): abolished
  Kd: > 25 mM
RgCBM40 R128A/R204A
  Binding by ITC (in words): abolished
  Kd: > 25 mM
RgCBM40 [3]
  Binding to RgCBM40 detected by STD NMR: detected
RgCBM40 I95A [4]
  Binding to I95A by STD-NMR: confirmed
RgCBM40 Y116A
  Binding by ITC (in words): abolished
  Kd: > 25 mM
RgCBM40 Y210A
  Binding by ITC (in words): abolished
  Kd: > 25 mM
RgCBM40 E126A
  Binding by ITC (in words): abolished
  Kd: > 25 mM
